# Assay results reported in US7141590B2, “Pharmaceutical uses and synthesis of nicotinanilide-N-oxides” (UCB SA, priority 2000, dated 2006).
# Values joined by “and” are separate entries in the source; they are usually repeats but may differ in a detail not shown here. Identical values can stand only once.
# B1: NAP-2: Neutrophil Activating Peptide-2 (protein, UniProt P02775 59-128, looked up)
# Neutrophil-activating peptide …: AELRCMCIKTTSGIHPKNIQSLEVIGKGTHCNQVEVIATLKDGRKICLDPDAPRIKKIVQKKLAGDESAD
# modifications: Neutrophil-activating peptide 2
# Experiments:
# [1] = tested on: somatostatin receptors; test: Somatostatin assay ([125I]tyr1 Somatostatin binding, AtT-20 membranes); design: species or system mouse; conditions: screened at 10 μM; Panlabs
# Procedure: This assay measures binding of [^125I]tyr^1 Somatostatin to somatostatin receptors. See Thermos, K. and Reisine, T. Mol. Pharmacol. 33:370–377, 1988, and Srikant, C. B. and Heisler, S., Endocrinology 117:271–278, 1985. In brief, AtT-20 (mouse pituitary) cells were used to prepare membranes in modified Tris-HCl pH 7.5 buffer using standard techniques. A 200 μg aliquot of membrane was incubated with 0.04 nM [^125I]tyr^1 Somatostatin for 60 minutes at 25° C. Non-specific binding was estimated in the presence of 1 μM somatostatin-14. Membranes were filtered and washed 3 times and the filters were counted to determine [^125I]tyr^1 Somatostatin specifically bound. Compounds were screened at 10 μM, with the data reported in Table 6 (row titled “Somat.”) in terms of specific binding (%).
# [2] = molecular target: T1, human CXCR1 (IL8RA) chemokine receptor (Homo sapiens, UniProt P25024); test: CXCR1 assay ([125I]Interleukin-8 binding); conditions: screened at 10 μM; Panlabs; read-out: CXCR1 specific binding (%)
# T1 construct: host or cells: CHO cells
# T1 sequence (P25024 1-350): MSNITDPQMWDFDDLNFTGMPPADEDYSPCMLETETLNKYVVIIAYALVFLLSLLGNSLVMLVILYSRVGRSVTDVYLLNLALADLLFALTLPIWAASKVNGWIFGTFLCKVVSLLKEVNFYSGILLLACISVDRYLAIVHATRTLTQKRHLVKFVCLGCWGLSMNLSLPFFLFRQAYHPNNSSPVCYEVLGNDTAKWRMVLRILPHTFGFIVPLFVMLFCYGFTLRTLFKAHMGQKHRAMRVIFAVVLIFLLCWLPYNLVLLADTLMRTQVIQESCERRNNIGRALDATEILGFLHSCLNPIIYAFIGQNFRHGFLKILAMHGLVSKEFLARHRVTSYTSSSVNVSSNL
# Procedure: This assay measures binding of [^125I]Interleukin-8 to human interleukin-CXCR1 (ILR8A) receptors. See Ahuja, S. K. and Murphy, P. M. J. Biol. Chem. 271:20545–20550, 1996 for details. In brief, CHO cells stably transfected with a plasmid encoding the human CXCR1 (IL8RA) chemokine receptor were used to prepare membranes in modified HEPES pH 7.4 buffer using standard techniques. A 5 μg aliquot of membrane was incubated with 8 pM [^125I]Interleukin-8 for 60 minutes at room temperature. Non-specific binding was estimated in the presence of 10 nM interleukin-8. Membranes were filtered and washed 3 times and the filters were counted to determine [^125I]Interleukin-8 specifically bound. Compounds were screened at 10 μM, with the data reported in Table 6 (row titled “CXCR1”) in terms of specific binding (%).
# [3] = molecular target: T2, human CXCR2 (IL8RB) chemokine receptor (Homo sapiens, UniProt P25025); test: Panlabs CXCR2 filtermat binding assay ([125I]Interleukin-8); conditions: 1 h, screened at 10 μM, read-out: CXCR2 specific binding (%)
# T2 construct: host or cells: CHO cells
# T2 sequence (P25025 1-360): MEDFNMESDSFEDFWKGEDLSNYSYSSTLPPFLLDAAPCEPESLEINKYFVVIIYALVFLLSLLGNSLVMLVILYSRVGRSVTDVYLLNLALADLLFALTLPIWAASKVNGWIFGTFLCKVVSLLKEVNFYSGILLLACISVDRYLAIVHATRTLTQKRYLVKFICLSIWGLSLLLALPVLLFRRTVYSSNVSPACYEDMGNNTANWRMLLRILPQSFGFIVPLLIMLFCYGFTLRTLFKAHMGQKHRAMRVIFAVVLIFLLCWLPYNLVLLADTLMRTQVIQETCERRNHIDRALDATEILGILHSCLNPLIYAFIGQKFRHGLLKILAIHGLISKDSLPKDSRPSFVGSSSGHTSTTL
# Procedure: Selected compounds were screened by Panlabs (Bothell Wash.) using their CXCR2 filtermat binding assay. This assay measures binding of [^125I]Interleukin-8 to human interleukin-CXCR2 (IL8RB) receptors and is also described in Ahuja, S. K. and Murphy, P. M., J. Biol. Chem. 271:20545–20550, 1996. In summary, CHO cells stably transfected with a plasmid encoding the human CXCR2 (IL8RB) chemokine receptor were used to prepare membranes in modified HEPES pH 7.4 buffer. A 2 μg aliquot of membrane was incubated with 15 pM [^125I]Interleukin-8 for 60 minutes at room temperature. Non-specific binding was estimated in the presence of 10 nM interleukin-8. Membranes were filtered and washed 3 times and the filters were counted to determine [^125I]Interleukin-8 specifically bound. Compounds were screened at 10 μM and results are reported in terms of Specific Binding (%) in Tables 3–5.
# This assay measures binding of [^125I]Interleukin-8 to human interleukin-CXCR2 (IL8RB) receptors. See Ahuja, S. K. and Murphy, P. M., J. Biol. Chem. 271: 20545–20550, 1996, for details. In brief, CHO cells stably transfected with a plasmid encoding the human CXCR2 (IL8RB) chemokine receptor were used to prepare membranes in modified HEPES pH 7.4 buffer using standard techniques. A 2 μg aliquot of membrane was incubated with 15 pM [^125I]Interleukin-8 for 60 minutes at room temperature. Non-specific binding was estimated in the presence of 10 nM interleukin-8. Membranes were filtered and washed 3 times and the filters were counted to determine [^125I]Interleukin-8 specifically bound. Compounds were screened at 10 μM, with the results reported in Table 6 (row titled “CXCR2”) in terms of specific binding (%).
# [4] = molecular target: T3, human neuropeptide Y1 (NPY1) receptors (Homo sapiens, UniProt P25929); test: NPY1 assay ([125I]Peptide YY binding, SK-N-MC cells); conditions: screened at 10 μM; Panlabs
# T3 construct: host or cells: SK-N-MC (human neuroblastoma) cells
# T3 sequence (P25929 1-384): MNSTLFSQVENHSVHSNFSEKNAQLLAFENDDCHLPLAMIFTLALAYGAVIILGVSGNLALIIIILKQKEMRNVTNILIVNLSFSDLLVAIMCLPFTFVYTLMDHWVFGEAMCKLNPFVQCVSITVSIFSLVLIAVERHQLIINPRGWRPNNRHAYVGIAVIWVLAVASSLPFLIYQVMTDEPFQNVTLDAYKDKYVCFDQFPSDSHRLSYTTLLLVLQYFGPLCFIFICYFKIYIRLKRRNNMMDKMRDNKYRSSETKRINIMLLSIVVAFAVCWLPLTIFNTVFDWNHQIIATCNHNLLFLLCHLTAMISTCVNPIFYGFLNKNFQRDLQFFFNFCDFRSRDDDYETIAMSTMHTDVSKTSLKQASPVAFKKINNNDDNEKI
# Procedure: This assay measures binding of [^125I]Peptide YY (PYY) to human neuropeptide Y1 (NPY1) receptors. See Fuhlendorff, J., et al. Proc. Natl Acad. Sci. USA 87:182–186, 1990 and Sheikh, S. P., et al. J. Biol. Chem. 264: 6648–6654, 1989. In brief, SK-N-MC (human neuroblastoma) cells were used in modified HBSS pH 7.4 buffer using standard techniques. The cells (10^6) were incubated with 12.5 pM [^125I]PYY for 45 minutes at 25° C. […] Cells were centrifuged and pellets were counted to determine [^125I]PYY specifically bound. Compounds were screened at 10 μM, with the results shown in Table 6 (row titled “NPY1”), reported in terms of specific binding (%).
# [5] = molecular target: T4, human chemokine CCR5 receptor (Homo sapiens, UniProt P51681); test: CCR5 assay ([125I]MIP-1β binding); conditions: 2 h; screened at 10 μM; Panlabs; read-out: CCR5 specific binding (%)
# T4 construct: host or cells: CHO-K1-p242-CCR5 cells
# T4 sequence (P51681 whole entry): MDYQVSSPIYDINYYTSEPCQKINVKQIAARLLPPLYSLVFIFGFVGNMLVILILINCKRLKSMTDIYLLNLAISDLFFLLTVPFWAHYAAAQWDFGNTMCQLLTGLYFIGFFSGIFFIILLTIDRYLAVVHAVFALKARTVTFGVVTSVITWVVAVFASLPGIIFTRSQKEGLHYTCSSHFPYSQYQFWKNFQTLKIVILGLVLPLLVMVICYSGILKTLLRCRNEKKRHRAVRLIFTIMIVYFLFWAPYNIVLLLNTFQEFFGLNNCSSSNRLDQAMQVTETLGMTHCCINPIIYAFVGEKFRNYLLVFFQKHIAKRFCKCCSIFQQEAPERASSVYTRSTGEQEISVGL
# Procedure: This assay measures the binding of [^125I]MIP-1β to human chemokine CCR5 receptors. See Samson, M., et al., J. Biol. Chem. 272:24934–24941, 1997. In brief, CHO-K1-p242-CCR5 cells stably transfected with a plasmid encoding the human chemokine CCR5 receptor were used to prepare membranes in modified HEPES buffer at pH 7.4 using standard techniques. A 1 μg aliquot was incubated with 0.1 nM [^125I]MIP-1β for 120 minutes at 25° C. Non-specific binding was estimated in the presence of 0.1 μM MIP-1β. Membranes were filtered and washed 3 times and filters were counted to determine [^125I]MIP-1β specifically bound. Compounds were screened at 10 μM. The data obtained from this assay is reported in Table 6 (row titled “CCR5”), in terms of specific binding (%).
# [6] = molecular target: T2, human CXCR2 (IL8RB) chemokine receptor; conditions: CXCR2 reference data; cited from earlier work
# [7] = molecular target: T1, human CXCR1 (IL8RA) chemokine receptor; conditions: CXCR1 reference data; cited from earlier work
Molecule,Somat. specific binding (%) [1],remaining activity at 10 µM [2],remaining activity at 10 µM [3],NPY1 specific binding (%) [4],remaining activity at 10 µM [5],IC50 [6],Ki [6],nH [6],IC50 [7],Ki [7],nH [7]
O=C(Nc1ccc(F)cc1)c1ccc(Cl)[n+]([O-])c1 [drawing 128],* (“*” indicates a value of less than or equal to 40),> 40%,> 40%,* (“*” indicates a value of less than or equal to 40),,,,,,,
CS(=O)(=O)c1ccc(C(=O)Nc2ccc(F)cc2)c[n+]1[O-] [drawing 129],** (“**” indicates a value of greater than 40),> 40%,> 40%,** (“**” indicates a value of greater than 40),> 40%,,,,,,
O=C(Nc1ccc(F)cc1)c1ccc(S(=O)(=O)c2ccccc2)[n+]([O-])c1 [drawing 130],* (“*” indicates a value of less than or equal to 40),> 40%,> 40%,* (“*” indicates a value of less than or equal to 40),≤ 40%,,,,,,
CCS(=O)(=O)c1ccc(C(=O)Nc2ccc(F)cc2)c[n+]1[O-] [drawing 131],* (“*” indicates a value of less than or equal to 40),≤ 40%,> 40%,** (“**” indicates a value of greater than 40),> 40%,,,,,,
CCCS(=O)(=O)c1ccc(C(=O)Nc2ccc(F)cc2)c[n+]1[O-] [drawing 132],* (“*” indicates a value of less than or equal to 40),≤ 40%,> 40%,** (“**” indicates a value of greater than 40),> 40%,,,,,,
O=C(Nc1ccc(F)cc1)c1ccc(S(=O)(=O)Cc2ccccc2)[n+]([O-])c1 [drawing 133],* (“*” indicates a value of less than or equal to 40),≤ 40%,> 40%,* (“*” indicates a value of less than or equal to 40),≤ 40%,,,,,,
O=C(Nc1ccc(F)cc1)c1ccc(S(=O)(=O)C2CCCC2)[n+]([O-])c1 [drawing 134],* (“*” indicates a value of less than or equal to 40),≤ 40%,> 40%,* (“*” indicates a value of less than or equal to 40),> 40%,,,,,,
O=C(Nc1ccc(F)c(F)c1)c1ccc(Cl)[n+]([O-])c1 [drawing 135],,≤ 40%,> 40%,,≤ 40%,,,,,,
O=C(Nc1ccc(F)cc1)c1cc(Cl)c(Cl)[n+]([O-])c1 [drawing 136],* (“*” indicates a value of less than or equal to 40),> 40%,> 40%,,≤ 40%,,,,,,
GROα (or MGSA): Growth Regulatory Oncogene α; Melanoma Growth Stimulatory Activity; CXC chemokine,,,,,,0.098 nM,0.098 nM and 0.068 nM,0.9,> 10000 nM,,
Interleukin-8: CXC chemokine; standard reference agent used in CXCR1 and CXCR2 binding assays,,,,,,0.035 nM,0.024 nM,0.7,0.035 nM,0.007 nM,1.0
B1,,,,,,3.1 nM,2.2 nM,0.6,> 10000 nM,,
